Results from PubChem BioAssay (NCI).
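In this assay, cells in 96-well plates receive the compound at five concentrations for 48 hours. Endpoints are linearly interpolated between the surrounding concentrations. TGI: total growth inhibition.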

What was measured:
Experiment in all cases: NCI-60 cell line screen, 48 h
[1] = tested on: NCI-H460 lung
[2] = tested on: MCF7 breast
[3] = tested on: MDA-N
[4] = tested on: IGROV1 ovarian
[5] = tested on: 786-0 renal
[6] = tested on: T-47D breast
[7] = tested on: RPMI-8226 leukemia
[8] = tested on: COLO 205 colon
[9] = tested on: CAKI-1 renal
[10] = tested on: SF-295 CNS
[11] = tested on: SK-MEL-2 melanoma
[12] = tested on: OVCAR-8 ovarian
[13] = tested on: NCI/ADR-RES ovarian
[14] = tested on: NCI-H226 lung
[15] = tested on: MDA-MB-231 breast
[16] = tested on: UACC-257 melanoma
[17] = tested on: HOP-62 NSCLC
[18] = tested on: SK-MEL-5 melanoma
[19] = tested on: SK-OV-3 ovarian
[20] = tested on: SNB-19 CNS
[21] = tested on: SN12C renal
[22] = tested on: PC-3 prostate
[23] = tested on: DU-145 prostate
[24] = tested on: M14 melanoma
[25] = tested on: HCT-116 colon
[26] = tested on: U251 CNS
[27] = tested on: ACHN renal
[28] = tested on: NCI-H23 lung
[29] = tested on: A549 NSCLC
[30] = tested on: HL-60(TB) leukemia
[31] = tested on: MALME-3M melanoma
[32] = tested on: SK-MEL-28 melanoma
[33] = tested on: K-562 leukemia
[34] = tested on: UO-31 renal
[35] = tested on: MOLT-4 leukemia
[36] = tested on: CCRF-CEM leukemia
[37] = tested on: SF-268 CNS
[38] = tested on: HOP-92 NSCLC
[39] = tested on: OVCAR-4 ovarian
[40] = tested on: HCT-15 colon
[41] = tested on: TK-10 renal
[42] = tested on: HT29 colon
[43] = tested on: MDA-MB-435
[44] = tested on: EKVX NSCLC
[45] = tested on: HCC-2998 colon
[46] = tested on: SW-620 colon
[47] = tested on: SR leukemia
[48] = tested on: KM12 colon
[49] = tested on: HS 578T breast
[50] = tested on: RXF 393 renal
[51] = tested on: UACC-62 melanoma
[52] = tested on: SNB-75 CNS
[53] = tested on: A498 renal
[54] = tested on: OVCAR-3 ovarian
[55] = tested on: NCI-H522 lung
[56] = tested on: BT-549 breast
[57] = tested on: OVCAR-5 ovarian
[58] = tested on: LOX IMVI melanoma
[59] = tested on: SF-539 CNS

`O=P1(C(O)/C=C/c2ccccc2)N(Cc2ccccc2)[C@H](c2ccccc2)[C@@H](c2ccccc2)N1Cc1ccccc1` (stereo partly drawn) showed a TGI [1] of over 79.1 µM, a TGI [2] of over 100 µM and a TGI [3] of over 100 µM. It also gave a TGI [4] of over 44.6 µM, a TGI [5] of over 100 µM and a TGI [6] of over 100 µM. It also gave a TGI [7] of 30.1 µM, a TGI [8] of 31.8 µM and a TGI [9] of 99.7 µM. For the same compound, the TGI [10] was over 64.4 µM, the TGI [11] was 41.5 µM and the TGI [12] was over 55.1 µM. For the same compound, the TGI [13] was over 100 µM, the TGI [14] was over 100 µM and the TGI [15] was 69.7 µM. It also gave a TGI [16] of 57.6 µM, a TGI [17] of over 93.3 µM and a TGI [18] of 41.2 µM. The TGI [19] was over 81.8 µM, the TGI [20] was over 100 µM and the TGI [21] was over 100 µM. For the same compound, the TGI [22] was over 94.7 µM, the TGI [23] was over 100 µM and the TGI [24] was over 100 µM. For the same compound, the TGI [25] was over 100 µM, the TGI [26] was over 100 µM and the TGI [27] was over 95.4 µM. For the same compound, the TGI [28] was over 59.2 µM, the TGI [29] was over 100 µM and the TGI [30] was 36.3 µM. The TGI [31] was 99.7 µM, the TGI [32] was over 100 µM and the TGI [33] was over 80.6 µM. For the same compound, the TGI [34] was 98.3 µM, the TGI [35] was over 100 µM and the TGI [36] was over 92.6 µM. It also gave a TGI [37] of over 100 µM, a TGI [38] of over 68.9 µM and a TGI [39] of over 100 µM. The TGI [40] was over 85.3 µM, the TGI [41] was over 100 µM and the TGI [42] was over 86.3 µM. It also gave a TGI [43] of over 93.3 µM, a TGI [44] of over 96.1 µM and a TGI [45] of over 100 µM. The TGI [46] was over 100 µM, the TGI [47] was 70.7 µM and the TGI [48] was over 100 µM. The TGI [49] was over 90.2 µM, the TGI [50] was over 100 µM and the TGI [51] was over 100 µM. The TGI [52] was over 83.6 µM, the TGI [53] was over 100 µM and the TGI [54] was over 93.1 µM. For the same compound, the TGI [55] was 59.2 µM, the TGI [56] was over 89.4 µM and the TGI [57] was over 100 µM. For the same compound, the TGI [58] was over 72.5 µM and the TGI [59] was over 100 µM.
For `CO/N=C(\C)c1ccc(Nc2c3ccccc3nc3occc23)cc1`, the TGI [1] was 9.05 µM, the TGI [2] was 1.59 µM and the TGI [3] was 0.379 µM. For the same compound, the TGI [4] was 12.4 µM, the TGI [5] was 6.67 µM and the TGI [6] was 19.2 µM. For the same compound, the TGI [7] was 12.1 µM, the TGI [8] was 6.37 µM and the TGI [9] was 7.15 µM. The TGI [10] was 1.98 µM, the TGI [11] was 1.94 µM and the TGI [12] was 14.8 µM. The TGI [13] was 4.75 µM, the TGI [14] was 28.5 µM and the TGI [15] was 10.2 µM. The TGI [16] was 44.1 µM, the TGI [17] was 16.2 µM and the TGI [18] was 6.53 µM. It also gave a TGI [19] of 17.2 µM, a TGI [20] of 45.1 µM and a TGI [21] of 22.6 µM. It also gave a TGI [22] of 49.3 µM, a TGI [23] of 10.3 µM and a TGI [24] of 9.59 µM. It also gave a TGI [25] of 12.1 µM, a TGI [26] of 10.9 µM and a TGI [27] of 35.2 µM. It also gave a TGI [28] of 26.4 µM, a TGI [29] of 20 µM and a TGI [30] of 2.23 µM. For the same compound, the TGI [31] was 0.895 µM, the TGI [32] was 8.62 µM and the TGI [33] was 37.3 µM. For the same compound, the TGI [34] was 25.1 µM, the TGI [35] was 33.5 µM and the TGI [36] was 35.9 µM. It also gave a TGI [37] of 18.6 µM, a TGI [38] of 42 µM and a TGI [39] of 7.58 µM. It also gave a TGI [40] of 13.1 µM, a TGI [41] of 18.4 µM and a TGI [42] of 2.16 µM. It also gave a TGI [43] of 0.224 µM, a TGI [44] of 39.9 µM and a TGI [45] of 1.94 µM. The TGI [46] was 18.9 µM, the TGI [47] was 21.9 µM and the TGI [48] was 12.5 µM. The TGI [49] was 10.3 µM, the TGI [50] was 0.877 µM and the TGI [51] was 16.3 µM. The TGI [52] was 3.29 µM, the TGI [53] was 9.94 µM and the TGI [54] was 2.85 µM. It also gave a TGI [55] of 0.311 µM, a TGI [56] of 21.3 µM and a TGI [57] of 32.2 µM. The TGI [58] was 18.2 µM and the TGI [59] was 2.28 µM.
